Test system: 873145-292-R-J1-PDC complex spheroid viability
Assay: Anticancer human tumor 873145-292-R-J1-PDC patient-derived renal clear cell carcinoma cell line growth inhibition [POLQ]
Settings: for IC50: curve of first compound; for viability, T/C: stronger effect = lower value
How it was run: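 Growth inhibition in 3D: complex spheroids (tumor PDC, HUVEC, MSC) treated with POLQ inhibitor combinations; where Cmax unknown, highest tested concentration 10 microM, except SN-38 at 1 microM.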

[1] = second compound 0.0316 µM, first compound 0.0316 µM
[2] = second compound 0.0316 µM, first compound 0.1 µM
[3] = second compound 0.0316 µM, first compound 0.316 µM
[4] = second compound 0.0316 µM, first compound 1 µM
[5] = second compound 0.0316 µM, first compound 3.16 µM
[6] = second compound 0.0316 µM, first compound 10 µM
[7] = second compound 0.1 µM, first compound 0.0316 µM
[8] = second compound 0.1 µM, first compound 0.1 µM
[9] = second compound 0.1 µM, first compound 0.316 µM
[10] = second compound 0.1 µM, first compound 1 µM
[11] = second compound 0.1 µM, first compound 3.16 µM
[12] = second compound 0.1 µM, first compound 10 µM
[13] = second compound 0.316 µM, first compound 0.0316 µM
[14] = second compound 0.316 µM, first compound 0.1 µM
[15] = second compound 0.316 µM, first compound 0.316 µM
[16] = second compound 0.316 µM, first compound 1 µM
[17] = second compound 0.316 µM, first compound 3.16 µM
[18] = second compound 0.316 µM, first compound 10 µM
[19] = second compound 1 µM, first compound 0.0316 µM
[20] = second compound 1 µM, first compound 0.1 µM
[21] = second compound 1 µM, first compound 0.316 µM
[22] = second compound 1 µM, first compound 1 µM
[23] = second compound 1 µM, first compound 3.16 µM
[24] = second compound 1 µM, first compound 10 µM
[25] = second compound 3.16 µM, first compound 0.0316 µM
[26] = second compound 3.16 µM, first compound 0.1 µM
[27] = second compound 3.16 µM, first compound 0.316 µM
[28] = second compound 3.16 µM, first compound 1 µM
[29] = second compound 3.16 µM, first compound 3.16 µM
[30] = second compound 3.16 µM, first compound 10 µM
[31] = second compound 10 µM, first compound 0.0316 µM
[32] = second compound 10 µM, first compound 0.1 µM
[33] = second compound 10 µM, first compound 0.316 µM
[34] = second compound 10 µM, first compound 1 µM
[35] = second compound 10 µM, first compound 3.16 µM
[36] = second compound 10 µM, first compound 10 µM
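Further: spheroids exposed to compounds for 7 days before viability readout.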
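Wherever viability, T/C is given: luminescence signal used as surrogate for viable cell content; 100% = DMSO vehicle control viability.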

CC1COCCN1c1cc(C2(S(C)(=N)=O)CC2)nc(-c2ccnc3[nH]ccc23)n1 (stereo unspecified) + Nc1ccc(C#CCN(C(=O)Cc2ncc(C(F)(F)F)cc2C(F)(F)F)c2ccc(F)cc2)nn1
IC50 (second compound 0.0316 µM): > 10 µM | IC50 (second compound 0.1 µM): > 10 µM | IC50 (second compound 0.316 µM): > 10 µM | IC50 (second compound 1 µM): > 10 µM | IC50 (second compound 3.16 µM): > 10 µM | IC50 (second compound 10 µM): > 10 µM | viability, T/C [1]: 103% | viability, T/C [2]: 99.2% | viability, T/C [3]: 102% | viability, T/C [4]: 80.5% | viability, T/C [5]: 73.9% | viability, T/C [6]: 71% | viability, T/C [7]: 107% | viability, T/C [8]: 98.4% | viability, T/C [9]: 82% | viability, T/C [10]: 83.3% | viability, T/C [11]: 88.9% | viability, T/C [12]: 67.8% | viability, T/C [13]: 102% | viability, T/C [14]: 92.8% | viability, T/C [15]: 84.7% | viability, T/C [16]: 92.3% | viability, T/C [17]: 78.2% | viability, T/C [18]: 69.6% | viability, T/C [19]: 90.7% | viability, T/C [20]: 90% | viability, T/C [21]: 90.8% | viability, T/C [22]: 88.5% | viability, T/C [23]: 80.2% | viability, T/C [24]: 64.4% | viability, T/C [25]: 92.2% | viability, T/C [26]: 97.1% | viability, T/C [27]: 101% | viability, T/C [28]: 82.8% | viability, T/C [29]: 82% | viability, T/C [30]: 73.2% | viability, T/C [31]: 105% | viability, T/C [32]: 106% | viability, T/C [33]: 103% | viability, T/C [34]: 110% | viability, T/C [35]: 85.5% | viability, T/C [36]: 81.3%

CCc1c2c(nc3ccc(O)cc13)-c1cc3c(c(=O)n1C2)COC(=O)[C@]3(O)CC + Nc1ccc(C#CCN(C(=O)Cc2ncc(C(F)(F)F)cc2C(F)(F)F)c2ccc(F)cc2)nn1
IC50 (second compound 0.0316 µM): 0.143 µM | IC50 (second compound 0.1 µM): 0.0662 µM | IC50 (second compound 0.316 µM): 0.119 µM | IC50 (second compound 1 µM): 0.114 µM | IC50 (second compound 3.16 µM): 0.079 µM | IC50 (second compound 10 µM): 0.173 µM | viability, T/C (second compound 0.0316 µM, first compound 0.00316 µM): 104% | viability, T/C (second compound 0.0316 µM, first compound 0.01 µM): 99.2% | viability, T/C [1]: 62.1% | viability, T/C [2]: 59.2% | viability, T/C [3]: 44.1% | viability, T/C [4]: 36.2% | viability, T/C (second compound 0.1 µM, first compound 0.00316 µM): 106% | viability, T/C (second compound 0.1 µM, first compound 0.01 µM): 102% | viability, T/C [7]: 60% | viability, T/C [8]: 48.7% | viability, T/C [9]: 50.9% | viability, T/C [10]: 30.2% | viability, T/C (second compound 0.316 µM, first compound 0.00316 µM): 114% | viability, T/C (second compound 0.316 µM, first compound 0.01 µM): 87.7% | viability, T/C [13]: 62.2% | viability, T/C [14]: 54.5% | viability, T/C [15]: 44.5% | viability, T/C [16]: 28.9% | viability, T/C (second compound 1 µM, first compound 0.00316 µM): 99.8% | viability, T/C (second compound 1 µM, first compound 0.01 µM): 85.2% | viability, T/C [19]: 66.4% | viability, T/C [20]: 51.5% | viability, T/C [21]: 41.7% | viability, T/C [22]: 39.9% | viability, T/C (second compound 3.16 µM, first compound 0.00316 µM): 94.5% | viability, T/C (second compound 3.16 µM, first compound 0.01 µM): 97.8% | viability, T/C [25]: 67.6% | viability, T/C [26]: 47.9% | viability, T/C [27]: 42% | viability, T/C [28]: 35.9% | viability, T/C (second compound 10 µM, first compound 0.00316 µM): 111% | viability, T/C (second compound 10 µM, first compound 0.01 µM): 94.5% | viability, T/C [31]: 66.8% | viability, T/C [32]: 55.8% | viability, T/C [33]: 47.4% | viability, T/C [34]: 34.9%

CNCc1ccc(-c2[nH]c3cc(F)cc4c3c2CCNC4=O)cc1 + Nc1ccc(C#CCN(C(=O)Cc2ncc(C(F)(F)F)cc2C(F)(F)F)c2ccc(F)cc2)nn1
IC50 (second compound 0.0316 µM): > 10 µM | IC50 (second compound 0.1 µM): > 10 µM | IC50 (second compound 0.316 µM): > 10 µM | IC50 (second compound 1 µM): > 10 µM | IC50 (second compound 3.16 µM): > 10 µM | IC50 (second compound 10 µM): > 10 µM | viability, T/C [1]: 99% | viability, T/C [2]: 92.8% | viability, T/C [3]: 89.1% | viability, T/C [4]: 87.7% | viability, T/C [5]: 95.5% | viability, T/C [6]: 103% | viability, T/C [7]: 107% | viability, T/C [8]: 105% | viability, T/C [9]: 83.5% | viability, T/C [10]: 88.9% | viability, T/C [11]: 88.3% | viability, T/C [12]: 92.8% | viability, T/C [13]: 97.3% | viability, T/C [14]: 95.8% | viability, T/C [15]: 88.6% | viability, T/C [16]: 92.4% | viability, T/C [17]: 91.6% | viability, T/C [18]: 89.2% | viability, T/C [19]: 102% | viability, T/C [20]: 92.9% | viability, T/C [21]: 102% | viability, T/C [22]: 94.7% | viability, T/C [23]: 103% | viability, T/C [24]: 90.4% | viability, T/C [25]: 100% | viability, T/C [26]: 104% | viability, T/C [27]: 108% | viability, T/C [28]: 95.4% | viability, T/C [29]: 97.5% | viability, T/C [30]: 100% | viability, T/C [31]: 109% | viability, T/C [32]: 104% | viability, T/C [33]: 103% | viability, T/C [34]: 100% | viability, T/C [35]: 99.4% | viability, T/C [36]: 105%
